Consider one substance from patent US7442680B2, “Inotropic and diuretic effects of GLP-1 and GLP-1 agonists” (Amylin Pharmaceuticals, Inc., priority 1998, dated 2008).

For assay [1], the system named is Harlan Sprague Dawley rats. As to the kind of experiment: Diuretic effects of GLP-1 or exendin in anesthetized rats (urine flow, sodium excretion, urinary potassium). Type of assay: in vivo, rat. The note with it: intravenous bolus. The procedure: In Vivo Studies in Anesthetized rats: Male, Harlan Sprague Dawley rats were housed at 23±1° C. in a 12:12 hour light:dark cycle (experiments being performed during the light cycle) and were fed and watered ad libitum (Diet LM-485, Teklad, Madison, Wis.). Animals weighing 325-375 gms were fasted for ˜20 hours prior to experimentation.
Surgical preparation: The preparation used here was as described in Young et al., (Drug Dev Res. 37:231-248, 1996), but modified by the addition of unilateral ureteral cannulation. Anesthesia was induced with 5% halothane, maintained with 2% halothane during surgery and with 0.7 to 1% thereafter. […] Colonic temperature was measured and controlled using a thermistor probe/controller (Model 73A, YSI, Yellow Springs, Ohio) and a heated operating table. Signals for mean arterial pressure were periodically sampled at 1 Hz with 12 bit precision (DataTranslation DT2801A) and recorded (Labtech Notebook).
Observations are expressed as the percent of baseline, defined as the mean of measurements made in the 30 min prior to starting peptide or vehicle infusion. Data are expressed as mean±SEM. n=5-6.
Measurements: Samples of arterial blood (160 μl) were collected periodically and samples of urine were collected every 15 min. […] Unilateral urine flow was measured by weighing the 15-minute output of the cannulated ureter. […]

Assay [2] relates to Harlan Sprague Dawley rats. Put plainly: Arterial blood pressure and dP/dt in conscious rats by telemetry. The note with it: single intraperitoneal injection. Type of assay: in vivo, rat. The source says: Insertion of Transducers: Male, Harlan Sprague Dawley rats were anesthetized with halothane and the abdominal aorta exposed after laparotomy. According to procedures detailed in the “Pressure Telemetry” manual from Data Sciences Inc., pressure transducer/transmitters were secured in place on the abdominal wall with the catheter tip in the abdominal aorta ˜2 mm above bifurcation. Following closure, the animals then recovered to allow at least 7 days of stable recordings. Baseline data were collected during the 7+days after surgery.
Measurement of blood pressure and dP/dt: After obtaining a stable baseline, rats received an intraperitoneal (ip) injection of GLP-1, exendin or vehicle alone (NaCl). The transmitted signals were recorded via telemetry and stored on a personal computer. Rate of pressure change, dP/dt, was calculated by software provided by Data Sciences.
GLP-1: Animals received a single intraperitoneal (ip) injection of saline or GLP-1 (100 μl), n=7-8.

The conditions of assay [3]: cited from earlier work.
For assay [4] the following is noted: administered through the jugular vein; cited from earlier work.

Where two headings read alike, the source gives them in different places. Where no end group is shown, it is not given here.

“His Ala Glu Gly Thr Phe Thr Ser Asp Val Ser Ser Tyr Leu Glu Gly Gln Ala Ala Lys Glu Phe Ile Ala Trp Leu Val Lys Gly Arg-NH2 (HAEGTFTSDVSSYLEGQAAKEFIAWLVKGR-NH2; listed as Homo sapiens) [GLP-1]”: the sodium excretion result in assay [1] is “increased”. For the same substance, in assay [2], the “cardiac contractility (dP/dt)” value is given as “increase” and the mean arterial pressure entry is on record as “increase”. Further, the diuretic effect result in assay [3] (intracerebroventricular administration) is reported as “diuretic, antidypsogenic effect”. The diuretic effect result in assay [3] (peripheral, intraperitoneal injection) is “did not have this effect”. In assay [4], the “systolic and diastolic blood pressure and heart rate” value is reported as “increase”.
